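Dose response: 5 concentrations. Exposure: 48 h. Format: 96-well plates. Endpoint: linear interpolation; highest concentration if not reached. GI50 = concentration required for 50% inhibition of growth.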 Activity calls are given as the source filed them. Cut-off read from the data, not from the text of the source: active = GI50 up to about 1.1 µM and inactive = higher.
How the values were obtained:
Test in all cases: NCI anticancer screen, dose series, 48 h
[1] = test system: MOLT-4
[2] = test system: NCI-H23
[3] = test system: KM12
[4] = test system: TK-10
[5] = test system: EKVX
[6] = test system: SK-MEL-28
[7] = test system: RXF 393
[8] = test system: SNB-78
[9] = test system: NCI-H226
[10] = test system: HCC 2998
[11] = test system: SR
[12] = test system: HCT-116
[13] = test system: HT-29
[14] = test system: 786-0
[15] = test system: RPMI-8226
[16] = test system: M14
[17] = test system: MDA-MB-435
[18] = test system: MCF7
[19] = test system: HOP-92
[20] = test system: NCI-H522

| Structure (SMILES) | GI50 [1] | GI50 [2] | GI50 [3] | GI50 [4] | GI50 [5] | GI50 [6] | GI50 [7] | GI50 [8] | GI50 [9] | GI50 [10] | GI50 [11] | GI50 [12] | GI50 [13] | GI50 [14] | GI50 [15] | GI50 [16] | GI50 [17] | GI50 [18] | GI50 [19] | GI50 [20] |
| --- | --- | --- | --- | --- | --- | --- | --- | --- | --- | --- | --- | --- | --- | --- | --- | --- | --- | --- | --- | --- |
| Cc1[nH]c2ccccc2c1C1Cc2ccccc2N1C(=O)C#Cc1ccc([N+](=O)[O-])cc1 (centres undefined) | 8.87 µM (inactive) | > 100 µM (inactive) | > 100 µM (inactive) | > 100 µM (inactive) | > 100 µM (inactive) | > 100 µM (inactive) | 6.81 µM (inactive) | > 100 µM (inactive) | > 100 µM (inactive) | > 100 µM (inactive) | 8 µM (inactive) | > 100 µM (inactive) | > 100 µM (inactive) | > 100 µM (inactive) | 76 µM (inactive) | > 100 µM (inactive) |  |  |  |  |
| C[C@]12CC[C@H]3[C@@H](CCC4=CC(=O)CC[C@@H]43)[C@@H]1CC[C@@H]2OC1(O)C(=O)c2ccccc2C1=O | 33.3 µM (inactive) | 27.1 µM (inactive) | > 100 µM (inactive) | 32.5 µM (inactive) | 0.352 µM (active) | > 100 µM (inactive) | 33.3 µM (inactive) |  | > 100 µM (inactive) | > 100 µM (inactive) | 35.6 µM (inactive) | 14.5 µM (inactive) | 35.1 µM (inactive) | 24.9 µM (inactive) | 26.2 µM (inactive) | 44.6 µM (inactive) | 32.7 µM (inactive) | 30.8 µM (inactive) | > 100 µM (inactive) | 17.3 µM (inactive) |
| COc1ccc(/C=N/NS(=O)(=O)c2ccccc2)cc1 | > 100 µM (inactive) | > 100 µM (inactive) | > 100 µM (inactive) | > 100 µM (inactive) | > 100 µM (inactive) | > 100 µM (inactive) | > 100 µM (inactive) | > 100 µM (inactive) | > 100 µM (inactive) | > 100 µM (inactive) | > 100 µM (inactive) | > 100 µM (inactive) | > 100 µM (inactive) | > 100 µM (inactive) | > 100 µM (inactive) | > 100 µM (inactive) |  |  | > 100 µM (inactive) |  |
| COC1CCC(O)C(/C=C/[N+](=O)[O-])C1 (centres undefined) | 2.18 µM (inactive) | 3.91 µM (inactive) | 4.14 µM (inactive) | 4.72 µM (inactive) | 4.56 µM (inactive) | 13.4 µM (inactive) | 1.42 µM (inactive) |  | 2.07 µM (inactive) | 1.7 µM (inactive) | 1.59 µM (inactive) | 1.93 µM (inactive) | 3.37 µM (inactive) | 1.7 µM (inactive) | 1.55 µM (inactive) | 2.68 µM (inactive) | 1.65 µM (inactive) | 2.88 µM (inactive) | 12.5 µM (inactive) | 10.9 µM (inactive) |
| CCOC(=O)[C@H](Cc1ccc(O)cc1)/N=C1/[C@H]2CCC[C@]1(O)[C@@](C)([N+](=O)[O-])C2 | > 100 µM (inactive) | > 100 µM (inactive) | > 100 µM (inactive) | > 100 µM (inactive) | > 100 µM (inactive) | > 100 µM (inactive) | > 100 µM (inactive) |  | > 100 µM (inactive) | > 100 µM (inactive) | > 100 µM (inactive) | > 100 µM (inactive) | > 100 µM (inactive) | > 100 µM (inactive) | > 100 µM (inactive) | > 100 µM (inactive) | > 100 µM (inactive) | > 100 µM (inactive) | > 100 µM (inactive) | 63.7 µM (inactive) |
| CCN(c1ccc(Br)cc1)c1c(Br)c(=O)nc2ccccn12 | > 100 µM (inactive) | > 100 µM (inactive) | > 100 µM (inactive) | > 100 µM (inactive) | 73.3 µM (inactive) | > 100 µM (inactive) |  | > 100 µM (inactive) | > 100 µM (inactive) |  | > 100 µM (inactive) | > 100 µM (inactive) | > 100 µM (inactive) | > 100 µM (inactive) | 74.5 µM (inactive) | > 100 µM (inactive) |  |  | 57.3 µM (inactive) | 62.2 µM (inactive) |
| CC[C@@H]1NC(C(=O)OC)Cc2c1[nH]c1ccccc21 (some centres undefined) | > 100 µM (inactive) | > 100 µM (inactive) | > 100 µM (inactive) | > 100 µM (inactive) | > 100 µM (inactive) | > 100 µM (inactive) |  | > 100 µM (inactive) | > 100 µM (inactive) | > 100 µM (inactive) | > 100 µM (inactive) | > 100 µM (inactive) | > 100 µM (inactive) | > 100 µM (inactive) |  | > 100 µM (inactive) |  |  | > 100 µM (inactive) |  |
| Nc1ncnc2c1ncn2CCCCC(=O)O | > 100 µM (inactive) | > 100 µM (inactive) | > 100 µM (inactive) | > 100 µM (inactive) | > 100 µM (inactive) | > 100 µM (inactive) | > 100 µM (inactive) |  | > 100 µM (inactive) | > 100 µM (inactive) | > 100 µM (inactive) | > 100 µM (inactive) | > 100 µM (inactive) | > 100 µM (inactive) | > 100 µM (inactive) | > 100 µM (inactive) | > 100 µM (inactive) | > 100 µM (inactive) | > 100 µM (inactive) | > 100 µM (inactive) |
| Cc1nc(-n2nc(-c3ccccc3)cc2-c2ccccc2)sc1C(=O)CC(=O)C(=O)Nc1ccc(Cl)c(Cl)c1 | 59.6 µM (inactive) | 43.1 µM (inactive) | 35.9 µM (inactive) | > 100 µM (inactive) | 15.1 µM (inactive) |  | > 100 µM (inactive) | > 100 µM (inactive) | > 100 µM (inactive) | > 100 µM (inactive) | > 100 µM (inactive) | 64.6 µM (inactive) | 29.9 µM (inactive) | > 100 µM (inactive) | 41.8 µM (inactive) | > 100 µM (inactive) |  |  |  | 32.6 µM (inactive) |
| Cc1nn(C(=O)c2ccc(Cl)cc2)c2c1C(c1ccc(O)cc1)SC(=N)N2 (centres undefined) | > 10 µM (inactive) | > 10 µM (inactive) | > 10 µM (inactive) | > 10 µM (inactive) | > 10 µM (inactive) | > 10 µM (inactive) | > 10 µM (inactive) |  | > 10 µM (inactive) | > 10 µM (inactive) | > 10 µM (inactive) | > 10 µM (inactive) | > 10 µM (inactive) | > 10 µM (inactive) | > 10 µM (inactive) | > 10 µM (inactive) | > 10 µM (inactive) | > 10 µM (inactive) | > 10 µM (inactive) | > 10 µM (inactive) |
| COc1ccc2c(-c3csc(-c4c[nH]c5ccccc45)n3)c[nH]c2c1 | 3.86 µM (inactive) | 11.6 µM (inactive) | 3.21 µM (inactive) | 9.2 µM (inactive) | 1.37 µM (inactive) | 14.6 µM (inactive) | 5.01 µM (inactive) |  | 9.4 µM (inactive) | 4.03 µM (inactive) | 1.56 µM (inactive) | 3.68 µM (inactive) | 2.34 µM (inactive) | 5.53 µM (inactive) | 3.77 µM (inactive) | 7.76 µM (inactive) | 13.8 µM (inactive) | 4.36 µM (inactive) | 7.46 µM (inactive) | 4.04 µM (inactive) |
| COC(=O)[C@]12CC=C3O[C@@H]4OC5(CCCCC5)O[C@@H]4C3[C@@H]1C(=O)CCC2=O (some centres undefined) | > 100 µM (inactive) | > 100 µM (inactive) | > 100 µM (inactive) |  | > 100 µM (inactive) | > 100 µM (inactive) |  | > 100 µM (inactive) | > 100 µM (inactive) | > 100 µM (inactive) |  | > 100 µM (inactive) | > 100 µM (inactive) | > 100 µM (inactive) | > 100 µM (inactive) | > 100 µM (inactive) |  |  | > 100 µM (inactive) | 83.4 µM (inactive) |
| C=C(CO)CC(O)c1ccccc1 (centres undefined) | > 100 µM (inactive) | > 100 µM (inactive) | > 100 µM (inactive) | > 100 µM (inactive) | > 100 µM (inactive) | > 100 µM (inactive) | > 100 µM (inactive) | > 100 µM (inactive) | > 100 µM (inactive) | > 100 µM (inactive) |  | > 100 µM (inactive) | > 100 µM (inactive) | > 100 µM (inactive) | > 100 µM (inactive) | > 100 µM (inactive) |  |  | > 100 µM (inactive) | > 100 µM (inactive) |
| c1csc(-c2csc(-c3ccsc3)c2)c1 | 62.4 µM (inactive) | > 68.2 µM (inactive) | > 100 µM (inactive) | > 100 µM (inactive) | > 65.8 µM (inactive) | > 100 µM (inactive) | > 46.9 µM (inactive) |  | > 57.5 µM (inactive) | > 100 µM (inactive) | 97.3 µM (inactive) | > 100 µM (inactive) | > 100 µM (inactive) | > 100 µM (inactive) | > 100 µM (inactive) | > 75.9 µM (inactive) | > 100 µM (inactive) | > 46.3 µM (inactive) | > 100 µM (inactive) | 61.5 µM (inactive) |
| O=c1c(C(c2cccnc2)c2c(O)oc3cc(O)ccc3c2=O)c(O)oc2cc(O)ccc12 | > 100 µM (inactive) | > 100 µM (inactive) | > 100 µM (inactive) | > 100 µM (inactive) | > 100 µM (inactive) | > 100 µM (inactive) | > 100 µM (inactive) |  | > 100 µM (inactive) | > 100 µM (inactive) | > 100 µM (inactive) | > 100 µM (inactive) | > 100 µM (inactive) | > 100 µM (inactive) | > 100 µM (inactive) | > 100 µM (inactive) | > 100 µM (inactive) | > 100 µM (inactive) | > 100 µM (inactive) | > 100 µM (inactive) |

— ChEMBL document CHEMBL1201862, “PubChem BioAssay data set” (2004)
